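The concentration for 50% growth inhibition is given as GI50. At the TGI there is no net growth.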
Columns and labels:
Test in all cases: NCI tumour cell line growth inhibition, 384-well format
786-0 renal = test system: 786-0 renal
A498 renal = test system: A498 renal
A549 NSCLC = test system: A549 NSCLC
ACHN renal = test system: ACHN renal
BT-549 breast = test system: BT-549 breast
CAKI-1 renal = test system: CAKI-1 renal
CCRF-CEM leukemia = test system: CCRF-CEM leukemia
COLO 205 colon = test system: COLO 205 colon
DU-145 prostate = test system: DU-145 prostate
EKVX NSCLC = test system: EKVX NSCLC
HCC-2998 colon = test system: HCC-2998 colon
HCT-116 colon = test system: HCT-116 colon
HCT-15 colon = test system: HCT-15 colon
HL-60(TB) leukemia = test system: HL-60(TB) leukemia
HOP-62 NSCLC = test system: HOP-62 NSCLC
HOP-92 NSCLC = test system: HOP-92 NSCLC
HS 578T breast = test system: HS 578T breast
HT29 colon = test system: HT29 colon
IGROV1 ovarian = test system: IGROV1 ovarian
K-562 leukemia = test system: K-562 leukemia
KM12 colon = test system: KM12 colon
LOX IMVI melanoma = test system: LOX IMVI melanoma
M14 melanoma = test system: M14 melanoma
MALME-3M melanoma = test system: MALME-3M melanoma
MCF7 breast = test system: MCF7 breast
MDA-MB-231 breast = test system: MDA-MB-231 breast
MDA-MB-435 melanoma = test system: MDA-MB-435 melanoma
MDA-MB-468 breast = test system: MDA-MB-468 breast
MOLT-4 leukemia = test system: MOLT-4 leukemia
NCI-H226 lung = test system: NCI-H226 lung

With `CNC(=O)c1ccccc1Nc1nc(Nc2ccc(N3CCOCC3)cc2OC)ncc1Cl` the GI50 ([…]-0 renal) was 997 nM, the TGI (786-0 renal) was 4990 nM and the GI50 (A498 renal) was 519 nM. The TGI (A498 renal) was 9570 nM, the GI50 (A549 NSCLC) was 398 nM and the TGI (A549 NSCLC) was 2120 nM. The GI50 (ACHN renal) was 1110 nM, the TGI (ACHN renal) was 9280 nM and the GI50 (BT-549 breast) was 1260 nM. It also gave a TGI (BT-549 breast) of 10400 nM, a GI50 (CAKI-1 renal) of 664 nM and a TGI (CAKI-1 renal) of 2440 nM. The GI50 (CCRF-CEM leukemia) was 199 nM, the TGI (CCRF-CEM leukemia) was 376 nM and the GI50 (COLO 205 colon) was 138 nM. It also gave a TGI (COLO 205 colon) of 289 nM, a GI50 (DU-145 prostate) of 485 nM and a TGI (DU-145 prostate) of 3470 nM. It also gave a GI50 (EKVX NSCLC) of 158 nM, a TGI (EKVX NSCLC) of 1320 nM and a GI50 (HCC-2998 colon) of 711 nM. For the same compound, the TGI (HCC-2998 colon) was 3360 nM, the GI50 (HCT-116 colon) was 562 nM and the TGI (HCT-116 colon) was 2850 nM. It also gave a GI50 (HCT-15 colon) of 464 nM, a TGI (HCT-15 colon) of 10900 nM and a GI50 (HL-60(TB) leukemia) of 107 nM. The TGI (HL-60(TB) leukemia) was 264 nM, the GI50 (HOP-62 NSCLC) was 751 nM and the TGI (HOP-62 NSCLC) was 8770 nM. The GI50 (HOP-92 NSCLC) was 472 nM, the TGI (HOP-92 NSCLC) was 2230 nM and the GI50 (HS 578T breast) was 977 nM. The TGI (HS 578T breast) was 3470 nM, the GI50 (HT29 colon) was 200 nM and the TGI (HT29 colon) was 1660 nM. For the same compound, the GI50 (IGROV1 ovarian) was 380 nM, the TGI (IGROV1 ovarian) was 1910 nM and the GI50 (K-562 leukemia) was 4530 nM. The TGI (K-562 leukemia) was 18100 nM, the GI50 (KM12 colon) was 261 nM and the TGI (KM12 colon) was 899 nM. It also gave a GI50 (LOX IMVI melanoma) of 754 nM, a TGI (LOX IMVI melanoma) of 2500 nM and a GI50 (M14 melanoma) of 359 nM. For the same compound, the TGI (M14 melanoma) was 5880 nM, the GI50 (MALME-3M melanoma) was 287 nM and the TGI (MALME-3M melanoma) was 4720 nM. It also gave a GI50 (MCF7 breast) of 93.7 nM, a TGI (MCF7 breast) of 14600 nM and a GI50 (MDA-MB-231 breast) of 715 nM. For the same compound, the TGI (MDA-MB-231 breast) was > 100000 nM, the GI50 (MDA-MB-435 melanoma) was 441 nM and the TGI (MDA-MB-435 melanoma) was 6630 nM. The GI50 (MDA-MB-468 breast) was 655 nM, the TGI (MDA-MB-468 breast) was 2200 nM and the GI50 (MOLT-4 leukemia) was 200 nM. The TGI (MOLT-4 leukemia) was 380 nM and the GI50 (NCI-H226 lung) was 636 nM.

Reference: PubChem BioAssay (NCI)
